Laboratory results from paper PMC7814726, “Phytochemical constituents and biological activities of Salvia macrosiphon Boiss” (BMC Chemistry, 2021).
Like-named read-outs stand apart in the source and are kept apart here.

What was measured:
[1] = system: A549 lung cancer cell line; assay: MTT cytotoxicity assay, A549; type: cell-based, human; conditions: for IC50: Homo sapiens; for selectivity index A549: IC50 HDF / IC50 A549
Description: (§1) Two different human breast cancer cell lines (MCF-7 and MDA-MB-231), lung cancer cell line (A-549) and normal cell (Human Dermal Fibroblast) were purchased from Pasture Institute of Iran, Tehran, Iran. The medium of RPMI 1640 (PAA, Germany) including sodium bicarbonate and N-hydroxyethylpiperazone-n-2-ethanesulfonic Acid (HEPES, Biosera, England) was used to maintain the cell lines. The medium was enriched with fetal bovine serum (FBS; Gibco, USA) and antibiotics. Then, incubated in air atmosphere enriched 5% CO2 at 37 °C. The cytotoxic activity of all fractions and compounds were examined by the MTT (3-[4,5-dimethylthiazole-2-yl]-2,5-diphenyltetrazolium bromide) (Sigma-Aldrich, USA) assay.
(§2) Cancer is the second leading cause of death and responsible for approximately 13% of mortality in the world. […] One of the efficient approaches to new drugs is screening herbal extracts. In the present study, S. macrosiphon was selected for the possible cytotoxic activity. For this purpose, different fractions of aerial parts of the plants including n-hexane, chloroform, ethyl acetate, and water-soluble fractions were screened towards lung cancer cell line (A549) and breast cancer cell lines (MCF-7 and MDA-MB-231) as well as normal cell, human dermal fibroblasts (HDF), using MTT assay comparing with etoposide as a standard drug (Table 2). The inhibitory concentration, 50% (IC50) values (µg /mL) were calculated by linear regression analysis, expressed in mean ± SD.

[2] = system: MCF-7 human breast cancer cell line; assay: MTT cytotoxicity assay, MCF-7; type: cell-based; conditions: for IC50: Homo sapiens; for selectivity index MCF-7: IC50 HDF / IC50 MCF-7
Description: as §1, §2

[3] = system: MDA-MB-231 human breast cancer cell line; assay: MTT cytotoxicity assay, MDA-MB-231; type: cell-based; conditions: for IC50: Homo sapiens; for selectivity index MDA-MB-231: IC50 HDF / IC50 MDA-MB-231
Description: as §1, §2

[4] = system: Human Dermal Fibroblast (HDF); assay: MTT cytotoxicity assay, normal cells; type: cell-based; conditions: read-out: IC50 HDF
Description: as §1, §2

[5] = parameters: method as in earlier work; conditions: earlier report; cited from earlier work
[6] = A549, MTT assay, isolated compounds, read-out: IC50 A549
[7] = MCF7, MTT assay, isolated compounds, read-out: IC50 MCF-7
[8] = MDA-MB-231, MTT assay, isolated compounds, read-out: IC50 MDA-MB-231
[9] = MTT assay, normal cells, isolated compounds
[10] = MDA-MB-231, read-out: IC50 MDA-MB-231

melting point	Compound	IC50 [1, 6]	IC50 ([1]; A549, MTT assay, mean ± SD, fractions of S. macrosiphon, read-out: IC50 A549)	selectivity index A549 [1]	IC50 [2, 7]	IC50 ([2]; MCF7, MTT assay, mean ± SD, fractions of S. macrosiphon, read-out: IC50 MCF-7)	selectivity index MCF-7 [2]	IC50 [3, 8]	IC50 ([3]; MDA-MB-231, MTT assay, mean ± SD, fractions of S. macrosiphon, read-out: IC50 MDA-MB-231)	selectivity index MDA-MB-231 [3]	IC50 [4, 9]	IC50 ([4]; MTT assay, normal cells, mean ± SD, fractions of S. macrosiphon)	IC50 ([1]; A549, read-out: IC50 A549)	IC50 ([2]; MCF7, read-out: IC50 MCF-7)	IC50 [3, 10]	IC50 [4]	cytotoxicity [5]
–	COc1cc([C@@H]2c3cc4c(cc3[C@@H](O[C@@H]3O[C@@H]5CO[C@@H](C)O[C@H]5[C@H](O)[C@H]3O)[C@H]3COC(=O)[C@H]23)OCO4)cc(OC)c1O [Etoposide, reference compound]	28.2 ± 1.32 µM	16.6 ± 0.78 µg/mL	5.6	37.5 ± 0.66 µM	22.1 ± 0.39 µg/mL	4.2	34.5 ± 0.36 µM	20.3 ± 0.21 µg/mL	4.6	158 ± 2.04 µM	92.7 ± 1.2 µg/mL	–	–	–	–	–
95 to 98 °C	C=C[C@]1(C)CCC2[C@@]3(C)CCCC(C)(C)C3[C@@H](O)C[C@@]2(C)O1 (stereo partly drawn) [Compound 2, 6α-hydroxy-13-epimanoyl oxide]	170 ± 11.6 µM	–	–	98 ± 11.3 µM	–	–	120 ± 5.09 µM	–	–	> 653 µM	–	–	–	–	–	–
–	C=C[C@]1(C)CCC2[C@@]3(C)CCCC(C)(C)C3CC[C@@]2(C)O1 (stereo partly drawn) [Compound 1, 13-epi manoyl oxide]	–	–	17.4	–	–	21.4	–	–	15.2	–	–	19.4 ± 1.96 µM	15.8 ± 0.35 µM	22.2 ± 1.72 µM	338 ± 9.2 µM	–
–	COc1ccc(-c2cc(=O)c3c(O)cc(OC)cc3o2)cc1 [Compound 3, 5-hydroxy-7,4'-dimethoxyflavone]	469 ± 22.8 µM	–	–	428 ± 23.1 µM	–	–	470 ± 23.1 µM	–	–	> 971 µM	–	–	–	–	–	–
–	CC[C@H](CC[C@@H](C)[C@H]1CC[C@H]2[C@@H]3CC=C4C[C@@H](O)CC[C@]4(C)[C@H]3CC[C@]12C)C(C)C [Compound 4, β-sitosterol]	–	–	–	–	–	–	–	–	–	–	–	> 100 µM	> 100 µM	> 100 µM	–	no activity
